From ChEMBL document CHEMBL1139637, “Synthesis, X-ray crystallographic analysis, and antitumor activity of 1-acyl-3,6-disubstituted phenyl-1,4-dihydro-1,2,4,5-tetrazines” (2005)

Experiments:
A549 [1] = assay: Inhibition ratio against the growth of A-549 cells at 10e-8 mol/L concentration determined by SRB method; assay type: functional, Homo sapiens
A549 [2] = assay: Inhibition ratio against the growth of A-549 cells at 10e-5 mol/L concentration determined by SRB method; assay type: functional, Homo sapiens
P388 [3] = assay: Inhibition ratio against the growth of P-388 cells at 10e-8 mol/L concentration determined by MTT method; assay type: functional, Mus musculus
A549 [4] = assay: Inhibition ratio against the growth of A-549 cells at 10e-4 mol/L concentration determined by SRB method; assay type: functional, Homo sapiens
P388 [5] = assay: Inhibition ratio against the growth of P-388 cells at 10e-6 mol/L concentration determined by MTT method; assay type: functional, Mus musculus
P388 [6] = assay: Inhibition ratio against the growth of P-388 cells at 10e-7 mol/L concentration determined by MTT method; assay type: functional, Mus musculus
A549 [7] = assay: Inhibition ratio against the growth of A-549 cells at 10e-6 mol/L concentration determined by SRB method; assay type: functional, Homo sapiens
P388 [8] = assay: Inhibition ratio against the growth of P-388 cells at 10e-5 mol/L concentration determined by MTT method; assay type: functional, Mus musculus
P388 [9] = assay: Inhibition ratio against the growth of P-388 cells at 10e-4 mol/L concentration determined by MTT method; assay type: functional, Mus musculus
A549 [10] = assay: Inhibition ratio against the growth of A-549 cells at 10e-7 mol/L concentration determined by SRB method; assay type: functional, Homo sapiens

CC(C)C(=O)N1N=C(c2ccccc2)NN=C1c1ccccc1
Inhibition ratio (A549 [1]): 29.5 | Inhibition ratio (A549 [2]): 46.6 | Inhibition ratio (P388 [3]): 46.9 | Inhibition ratio (A549 [4]): 83.8 | Inhibition ratio (P388 [5]): 52 | Inhibition ratio (P388 [6]): 24.9 | Inhibition ratio (A549 [7]): 38.7 | Inhibition ratio (P388 [8]): 61.1 | Inhibition ratio (P388 [9]): 82.5 | Inhibition ratio (A549 [10]): 29.6

O=C(CCl)N1N=C(c2ccc(C(F)(F)F)cc2)NN=C1c1ccc(C(F)(F)F)cc1
Inhibition ratio (A549 [1]): 0 | Inhibition ratio (A549 [2]): 64.6 | Inhibition ratio (P388 [3]): 0 | Inhibition ratio (A549 [4]): 95.5 | Inhibition ratio (P388 [5]): 2.2 | Inhibition ratio (P388 [6]): 11.3 | Inhibition ratio (A549 [7]): 0 | Inhibition ratio (P388 [8]): 49.4 | Inhibition ratio (P388 [9]): 98.4 | Inhibition ratio (A549 [10]): 0

CCC(=O)N1N=C(c2ccc(C(F)(F)F)cc2)NN=C1c1ccc(C(F)(F)F)cc1
Inhibition ratio (A549 [1]): 9 | Inhibition ratio (A549 [2]): 48.1 | Inhibition ratio (P388 [3]): 0 | Inhibition ratio (A549 [4]): 84.7 | Inhibition ratio (P388 [5]): 6.7 | Inhibition ratio (P388 [6]): 6.3 | Inhibition ratio (A549 [7]): 21.7 | Inhibition ratio (P388 [8]): 21.1 | Inhibition ratio (P388 [9]): 68 | Inhibition ratio (A549 [10]): 0

CC(=O)N1N=C(c2ccccc2)NN=C1c1ccccc1
Inhibition ratio (A549 [1]): 0 | Inhibition ratio (A549 [2]): 0 | Inhibition ratio (P388 [3]): 9.2 | Inhibition ratio (A549 [4]): 85.1 | Inhibition ratio (P388 [5]): 6.6 | Inhibition ratio (P388 [6]): 5.5 | Inhibition ratio (A549 [7]): 0 | Inhibition ratio (P388 [8]): 10.9 | Inhibition ratio (P388 [9]): 62.7 | Inhibition ratio (A549 [10]): 0

O=C(CCl)N1N=C(c2ccccc2)NN=C1c1ccccc1
Inhibition ratio (A549 [1]): 13 | Inhibition ratio (A549 [2]): 95.8 | Inhibition ratio (P388 [3]): 0 | Inhibition ratio (A549 [4]): 95.4 | Inhibition ratio (P388 [5]): 3.9 | Inhibition ratio (P388 [6]): 3.6 | Inhibition ratio (A549 [7]): 35.3 | Inhibition ratio (P388 [8]): 100 | Inhibition ratio (P388 [9]): 99.1 | Inhibition ratio (A549 [10]): 4.1

CCC(=O)N1N=C(c2ccccc2)NN=C1c1ccccc1
Inhibition ratio (A549 [1]): 0 | Inhibition ratio (A549 [2]): 11.1 | Inhibition ratio (P388 [3]): 8.5 | Inhibition ratio (A549 [4]): 71.5 | Inhibition ratio (P388 [5]): 7.6 | Inhibition ratio (P388 [6]): 7.7 | Inhibition ratio (A549 [7]): 6.2 | Inhibition ratio (P388 [8]): 9.8 | Inhibition ratio (P388 [9]): 30.9 | Inhibition ratio (A549 [10]): 12.3

CC(C)C(=O)N1N=C(c2ccc(C(F)(F)F)cc2)NN=C1c1ccc(C(F)(F)F)cc1
Inhibition ratio (A549 [1]): 0 | Inhibition ratio (A549 [2]): 21 | Inhibition ratio (P388 [3]): 13.4 | Inhibition ratio (A549 [4]): 79.8 | Inhibition ratio (P388 [5]): 15 | Inhibition ratio (P388 [6]): 16.2 | Inhibition ratio (A549 [7]): 0 | Inhibition ratio (P388 [8]): 26.9 | Inhibition ratio (P388 [9]): 42.2 | Inhibition ratio (A549 [10]): 0

CC(=O)N1N=C(c2ccc(C(F)(F)F)cc2)NN=C1c1ccc(C(F)(F)F)cc1
Inhibition ratio (A549 [1]): 0 | Inhibition ratio (A549 [2]): 63.6 | Inhibition ratio (P388 [3]): 0 | Inhibition ratio (A549 [4]): 91.1 | Inhibition ratio (P388 [5]): 1.1 | Inhibition ratio (P388 [6]): 5 | Inhibition ratio (A549 [7]): 0 | Inhibition ratio (P388 [8]): 21.5 | Inhibition ratio (P388 [9]): 50.6 | Inhibition ratio (A549 [10]): 0
